Assay results published in US6737383B1, “Herbicidal oxadiazolidines” (priority 1999, dated 2004).

Columns and labels:
giant foxtail = assay: Test B pre/postemergence giant foxtail; assay type: in vivo, Setaria faberii
Description: (§1) Seeds of bedstraw (Galium aparine), blackgrass (Alopecurus myosuroides), surinam grass (Brachiaria decumbens), cocklebur (Xanthium strumarium), corn (Zea mays), crabgrass (Digitaria sanguinalis), giant foxtail (Setaria faberii), morningglory (Ipomoea hederacea), pigweed (Amaranthus retroflexus), rape (Brassica napus), soybean (Glycine max), sugar beet (Beta vulgaris), velvetleaf (Abutilon theophrasti), wheat (Triticum aestivum), wild oat (Avena fatua) and purple nutsedge (Cyperus rotundus) tubers were planted and treated preemnergence with test chemicals formulated in a non-phytotoxic solvent mixture which included a surfactant.
(§2) At the same time, these crop and weed species were also treated with postemergence applications of test chemicals formulated in the same manner. Plants ranged in height from 2 to 18 cm (1- to 4-leaf stage) for postemergence treatments. Plant species in the flood test consisted of rice (Oryza sativa), smallflower flatsedge (Cyperus difformis), duck salad (Heteranthera limosa) and bamyardgrass (Echinochloa crus-galli) grown to the 2-leaf stage for testing. Treated plants and controls were maintained in a greenhouse for twelve to sixteen days, after which all species were compared to controls and visually evaluated. Plant response ratings, summarized in Table B, are based on a scale of 0 to 10 where 0 is no effect and 10 is complete control. A dash (−) response means no test result.

blackgrass = assay: Test B pre/postemergence blackgrass; assay type: in vivo, Alopecurus myosuroides
Description: as §1, §2

rape = assay: Test B pre/postemergence rape; assay type: in vivo, Brassica napus
Description: as §1, §2

purple nutsedge = assay: Test B pre/postemergence purple nutsedge; assay type: in vivo, Cyperus rotundus
Description: as §1, §2

sugar beet = assay: Test B pre/postemergence sugar beet; assay type: in vivo, Beta vulgaris
Description: as §1, §2

crabgrass = assay: Test B pre/postemergence crabgrass; assay type: in vivo, Digitaria sanguinalis
Description: as §1, §2

pigweed = assay: Test B pre/postemergence pigweed; assay type: in vivo, Amaranthus retroflexus
Description: as §1, §2

wheat = assay: Test B pre/postemergence wheat; assay type: in vivo, Triticum aestivum
Description: as §1, §2

cocklebur = assay: Test B pre/postemergence cocklebur; assay type: in vivo, Xanthium strumarium
Description: as §1, §2

velvetleaf = assay: Test B pre/postemergence velvetleaf; assay type: in vivo, Abutilon theophrasti
How it was run: (§3)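 Response is a visual 0-to-10 score relative to untreated plants, where 0 means no effect and 10 means complete control, taken twelve to sixteen days after application. Treatments went onto soil at planting and onto foliage of 1- to 4-leaf plants, using a surfactant-containing non-phytotoxic solvent.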

bedstraw = assay: Test B pre/postemergence bedstraw; assay type: in vivo, Galium aparine
Description: as §1, §2

surinam grass = assay: Test B pre/postemergence surinam grass; assay type: in vivo, Brachiaria decumbens
Description: as §1, §2

soybean = assay: Test B pre/postemergence soybean; assay type: in vivo, Glycine max
Description: as §1, §2

morningglory = assay: Test B pre/postemergence morningglory; assay type: in vivo, Ipomoea hederacea
Description: as §1, §2

corn = assay: Test B pre/postemergence corn; assay type: in vivo, Zea mays
Description: as §1, §2

wild oat = assay: Test B pre/postemergence wild oat; assay type: in vivo, Avena fatua
How it was run: as §3

[1] = Postemergence, Rate 62 g/ha, scale 0 to 10, 0 is no effect, 10 is complete control
[2] = Postemergence, Rate 125 g/ha, scale of 0 to 10 where 0 is no effect and 10 is complete control
[3] = Preemergence, Rate 125 g/ha, scale of 0 to 10 where 0 is no effect and 10 is complete control
[4] = Preemergence, Rate 250 g/ha, scale 0 (no effect) to 10 (complete control)
[5] = Rate 62 g/ha, Preemergence, scale 0 to 10
[6] = Rate 250 g/ha, Postemergence, scale 0 to 10, 0 is no effect, 10 is complete control
[7] = Rate 500 g/ha, Postemergence, scale 0 to 10, 0 is no effect, 10 is complete control
[8] = Rate 500 g/ha, Preemergence, scale 0 to 10 (0 no effect, 10 complete control)

## C#CC(CC)n1c(=O)on(C(=O)N(c2ccc(F)cc2)C(C)C)c1=O (stereo not shown) [Compound 753]
Giant foxtail; [1]
  Plant response rating, Giant foxtail: 3
Giant foxtail; [2]
  Giant foxtail plant response rating: 8
Giant foxtail; [3]
  Plant response rating, Giant foxtail: 9
Giant foxtail; [4]
  Giant foxtail plant response rating: 9
Giant foxtail; [5]
  Giant foxtail plant response rating: 9
Giant foxtail; [6]
  Giant foxtail plant response rating: 8
Giant foxtail; [7]
  Giant foxtail plant response rating: 9
Giant foxtail; [8]
  Giant foxtail plant response rating: 9
blackgrass; [1]
  Plant response rating, Blackgrass: 0
blackgrass; [2]
  Blackgrass plant response rating: 2
blackgrass; [3]
  Plant response rating, Blackgrass: 9
blackgrass; [4]
  Blackgrass plant response rating: 9
blackgrass; [5]
  Blackgrass plant response rating: 5
blackgrass; [6]
  Blackgrass plant response rating: 4
blackgrass; [7]
  Blackgrass plant response rating: 4
blackgrass; [8]
  Blackgrass plant response rating: 9
rape; [1]
  Plant response rating, Rape: 0
rape; [2]
  Rape plant response rating: 0
rape; [3]
  Plant response rating, Rape: 5
rape; [4]
  Rape plant response rating: 7
rape; [5]
  Rape plant response rating: 2
rape; [6]
  Rape plant response rating: 0
rape; [7]
  Rape plant response rating: 0
rape; [8]
  Rape plant response rating: 7
Purple nutsedge; [1]
  Plant response rating, Nutsedge: 0
Purple nutsedge; [2]
  Nutsedge plant response rating: 0
Purple nutsedge; [3]
  Plant response rating, Nutsedge: 0
Purple nutsedge; [4]
  Nutsedge plant response rating: 0
Purple nutsedge; [5]
  Nutsedge plant response rating: 0
Purple nutsedge; [6]
  Nutsedge plant response rating: 2
Purple nutsedge; [7]
  Nutsedge plant response rating: 3
Purple nutsedge; [8]
  Nutsedge plant response rating: 0
Sugar beet; [1]
  Plant response rating, Sugarbeets: 0
Sugar beet; [3]
  Plant response rating, Sugarbeets: 0
Sugar beet; [4]
  Sugarbeets plant response rating: 1
Sugar beet; [5]
  Sugarbeets plant response rating: 0
Sugar beet; [6]
  Sugarbeets plant response rating: 5
Sugar beet; [7]
  Sugarbeets plant response rating: 5
Sugar beet; [8]
  Sugarbeets plant response rating: 8
crabgrass; [1]
  Plant response rating, Crabgrass: 0
crabgrass; [2]
  Crabgrass plant response rating: 4
crabgrass; [3]
  Plant response rating, Crabgrass: 9
crabgrass; [4]
  Crabgrass plant response rating: 9
crabgrass; [5]
  Crabgrass plant response rating: 9
crabgrass; [6]
  Crabgrass plant response rating: 6
crabgrass; [7]
  Crabgrass plant response rating: 9
crabgrass; [8]
  Crabgrass plant response rating: 9
pigweed; [1]
  Plant response rating, Redroot pigweed: 4
pigweed; [2]
  Redroot pigweed plant response rating: 5
pigweed; [3]
  Plant response rating, Redroot pigweed: 8
pigweed; [4]
  Redroot pigweed plant response rating: 9
pigweed; [5]
  Redroot pigweed plant response rating: 6
pigweed; [6]
  Redroot pigweed plant response rating: 6
pigweed; [7]
  Redroot pigweed plant response rating: 7
pigweed; [8]
  Redroot pigweed plant response rating: 10
wheat; [1]
  Plant response rating, Wheat: 0
wheat; [3]
  Plant response rating, Wheat: 0
wheat; [4]
  Wheat plant response rating: 3
wheat; [5]
  Wheat plant response rating: 0
wheat; [6]
  Wheat plant response rating: 0
wheat; [7]
  Wheat plant response rating: 5
wheat; [8]
  Wheat plant response rating: 3
cocklebur; [1]
  Plant response rating, Cocklebur: 0
cocklebur; [2]
  Cocklebur plant response rating: 0
cocklebur; [3]
  Plant response rating, Cocklebur: 0
cocklebur; [4]
  Cocklebur plant response rating: 0
cocklebur; [5]
  Cocklebur plant response rating: 0
cocklebur; [6]
  Cocklebur plant response rating: 0
cocklebur; [7]
  Cocklebur plant response rating: 4
cocklebur; [8]
  Cocklebur plant response rating: 2
velvetleaf; [1]
  Plant response rating, Velvetleaf: 0
velvetleaf; [3]
  Plant response rating, Velvetleaf: 0
velvetleaf; [5]
  Velvetleaf plant response rating: 0
velvetleaf; [6]
  Velvetleaf plant response rating: 2
velvetleaf; [7]
  Velvetleaf plant response rating: 2
velvetleaf; [8]
  Velvetleaf plant response rating: 2
bedstraw; [3]
  Plant response rating, Bedstraw: 0
bedstraw; [4]
  Bedstraw plant response rating: 3
bedstraw; [5]
  Bedstraw plant response rating: 0
bedstraw; [7]
  Bedstraw plant response rating: 6
bedstraw; [8]
  Bedstraw plant response rating: 3
Surinam grass; [1]
  Plant response rating, B. signalgrass: 0
Surinam grass; [2]
  B. signalgrass plant response rating: 0
Surinam grass; Preemergence, Rate 62 g/ha, scale of 0 to 10 where 0 is no effect and 10 is complete control
  B. signalgrass plant response rating: 2
Surinam grass; [3]
  Plant response rating, B. signalgrass: 7
Surinam grass; [4]
  B. signalgrass plant response rating: 9
Surinam grass; [6]
  B. signalgrass plant response rating: 2
Surinam grass; [7]
  B. signalgrass plant response rating: 7
Surinam grass; [8]
  B. signalgrass plant response rating: 9
soybean; [1]
  Plant response rating, Soybean: 1
soybean; [3]
  Plant response rating, Soybean: 0
soybean; [4]
  Soybean plant response rating: 0
soybean; [5]
  Soybean plant response rating: 0
soybean; [6]
  Soybean plant response rating: 4
soybean; [7]
  Soybean plant response rating: 4
soybean; [8]
  Soybean plant response rating: 0
morningglory; [2]
  Morningglory plant response rating: 2
morningglory; [3]
  Plant response rating, Morningglory: 0
morningglory; [4]
  Morningglory plant response rating: 0
morningglory; [5]
  Morningglory plant response rating: 0
morningglory; [6]
  Morningglory plant response rating: 9
morningglory; [7]
  Morningglory plant response rating: 10
morningglory; [8]
  Morningglory plant response rating: 0
corn; [1]
  Plant response rating, Corn: 0
corn; [2]
  Corn plant response rating: 0
corn; [3]
  Plant response rating, Corn: 0
corn; [4]
  Corn plant response rating: 0
corn; [5]
  Corn plant response rating: 0
corn; [6]
  Corn plant response rating: 0
corn; [7]
  Corn plant response rating: 1
corn; [8]
  Corn plant response rating: 0
Wild oat; [1]
  Plant response rating, Wild oats: 0
Wild oat; [3]
  Plant response rating, Wild oats: 4
Wild oat; [4]
  Wild oats plant response rating: 8
Wild oat; [5]
  Wild oats plant response rating: 0
Wild oat; [6]
  Wild oats plant response rating: 0
Wild oat; [7]
  Wild oats plant response rating: 2
Wild oat; [8]
  Wild oats plant response rating: 9
